Assay results from ChEMBL document CHEMBL4808217, “Design, Synthesis, and Characterization of 4-Aminoquinazolines as Potent Inhibitors of the G Protein-Coupled Receptor Kinase 6 (GRK6) for the Treatment of Multiple Myeloma” (J Med Chem, 2021).

Key:
[1] = molecular target: T1, Beta-adrenergic receptor kinase 1 (Homo sapiens, UniProt P25098); assay: Inhibition of human GRK2 using casein as substrate in presence of [gamma33P]ATP by radiometric hotspot kinase assay
T1 sequence (P25098 whole entry): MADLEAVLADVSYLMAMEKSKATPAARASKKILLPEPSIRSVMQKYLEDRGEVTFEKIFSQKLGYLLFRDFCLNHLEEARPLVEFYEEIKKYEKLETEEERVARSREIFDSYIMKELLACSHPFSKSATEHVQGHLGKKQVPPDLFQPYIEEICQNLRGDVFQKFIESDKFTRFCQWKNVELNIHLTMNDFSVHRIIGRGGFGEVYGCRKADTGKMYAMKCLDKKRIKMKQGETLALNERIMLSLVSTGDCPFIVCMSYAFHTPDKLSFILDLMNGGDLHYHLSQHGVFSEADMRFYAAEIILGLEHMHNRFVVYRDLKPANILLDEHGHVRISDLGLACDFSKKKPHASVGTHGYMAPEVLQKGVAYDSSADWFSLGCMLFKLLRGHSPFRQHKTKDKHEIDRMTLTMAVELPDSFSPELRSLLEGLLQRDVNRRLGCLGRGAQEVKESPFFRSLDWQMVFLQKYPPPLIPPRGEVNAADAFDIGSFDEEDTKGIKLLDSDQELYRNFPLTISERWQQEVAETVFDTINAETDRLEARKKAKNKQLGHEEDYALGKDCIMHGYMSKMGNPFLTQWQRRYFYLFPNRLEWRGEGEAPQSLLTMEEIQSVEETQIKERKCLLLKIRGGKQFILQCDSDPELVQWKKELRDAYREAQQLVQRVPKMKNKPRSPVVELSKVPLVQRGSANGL

[2] = molecular target: T2, G protein-coupled receptor kinase 6 (Homo sapiens, UniProt P43250); assay: Binding affinity to FLAG-tagged GRK6 in human KMS11 cells incubated for […] by ITDR assay; type: cell-based, KMS-11
[3] = molecular target: G protein-coupled receptor kinase 4 (Homo sapiens, UniProt P32298); assay: Inhibition of human GRK4 using casein as substrate in presence of [gamma33P]ATP by radiometric hotspot kinase assay
[4] = molecular target: T2, G protein-coupled receptor kinase 6; assay: Inhibition of human GRK6 using casein as substrate in presence of [gamma33P]ATP by radiometric hotspot kinase assay
[5] = molecular target: Serine/threonine-protein kinase Chk2 (Homo sapiens, UniProt O96017); assay: Inhibition of recombinant human CHK2 (5 to end residues) using KKKVSRSGLYRSPSMPENLNRPR as substrate incubated for 40 mins in presence of [gamma-33ATP] by scintillation counting based radiometry assay
Rhodopsin kinase GRK1 = molecular target: T3, Rhodopsin kinase GRK1 (Homo sapiens, UniProt Q15835); assay: Inhibition of human GRK1 using casein as substrate in presence of [gamma33P]ATP by radiometric hotspot kinase assay
T3 sequence (Q15835 whole entry): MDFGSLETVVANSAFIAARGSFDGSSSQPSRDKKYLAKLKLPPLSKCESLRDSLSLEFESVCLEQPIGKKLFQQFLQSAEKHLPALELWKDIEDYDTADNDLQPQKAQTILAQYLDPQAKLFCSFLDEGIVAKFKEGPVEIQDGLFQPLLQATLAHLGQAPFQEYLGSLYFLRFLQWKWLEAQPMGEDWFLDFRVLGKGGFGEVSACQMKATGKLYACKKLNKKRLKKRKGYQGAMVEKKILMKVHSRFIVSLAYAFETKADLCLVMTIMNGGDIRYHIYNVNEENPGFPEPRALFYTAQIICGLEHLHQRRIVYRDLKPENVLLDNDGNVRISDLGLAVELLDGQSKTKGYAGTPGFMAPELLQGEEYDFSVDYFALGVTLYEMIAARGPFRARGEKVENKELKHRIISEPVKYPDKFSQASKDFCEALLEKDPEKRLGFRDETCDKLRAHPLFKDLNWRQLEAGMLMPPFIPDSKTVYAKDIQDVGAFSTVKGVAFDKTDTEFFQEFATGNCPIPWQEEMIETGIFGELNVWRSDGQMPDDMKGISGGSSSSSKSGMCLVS

Aurora kinase A = molecular target: T4, Aurora kinase A (Homo sapiens, UniProt O14965); assay: Inhibition of recombinant full length human Aurora A using LRRASLG as substrate incubated for 40 mins in presence of [gamma-33ATP] by radiometric scintillation counting method
T4 sequence (O14965 whole entry): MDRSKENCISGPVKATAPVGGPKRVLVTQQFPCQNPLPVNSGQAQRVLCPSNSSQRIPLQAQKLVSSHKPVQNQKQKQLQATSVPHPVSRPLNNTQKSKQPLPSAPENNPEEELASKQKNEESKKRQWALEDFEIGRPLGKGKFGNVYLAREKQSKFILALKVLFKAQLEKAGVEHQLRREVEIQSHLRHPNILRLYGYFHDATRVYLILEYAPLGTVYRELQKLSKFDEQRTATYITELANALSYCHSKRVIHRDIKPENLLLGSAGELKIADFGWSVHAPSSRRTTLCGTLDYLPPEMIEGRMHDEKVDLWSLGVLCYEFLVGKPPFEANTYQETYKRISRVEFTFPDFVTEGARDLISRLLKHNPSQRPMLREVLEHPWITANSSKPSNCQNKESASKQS

Rhodopsin kinase GRK7 = molecular target: T5, Rhodopsin kinase GRK7 (Homo sapiens, UniProt Q8WTQ7); assay: Inhibition of recombinant full length human GRK7 using casein as substrate incubated for 40 mins in presence of [gamma-33ATP] by scintillation counting based radiometry assay
T5 sequence (Q8WTQ7 whole entry): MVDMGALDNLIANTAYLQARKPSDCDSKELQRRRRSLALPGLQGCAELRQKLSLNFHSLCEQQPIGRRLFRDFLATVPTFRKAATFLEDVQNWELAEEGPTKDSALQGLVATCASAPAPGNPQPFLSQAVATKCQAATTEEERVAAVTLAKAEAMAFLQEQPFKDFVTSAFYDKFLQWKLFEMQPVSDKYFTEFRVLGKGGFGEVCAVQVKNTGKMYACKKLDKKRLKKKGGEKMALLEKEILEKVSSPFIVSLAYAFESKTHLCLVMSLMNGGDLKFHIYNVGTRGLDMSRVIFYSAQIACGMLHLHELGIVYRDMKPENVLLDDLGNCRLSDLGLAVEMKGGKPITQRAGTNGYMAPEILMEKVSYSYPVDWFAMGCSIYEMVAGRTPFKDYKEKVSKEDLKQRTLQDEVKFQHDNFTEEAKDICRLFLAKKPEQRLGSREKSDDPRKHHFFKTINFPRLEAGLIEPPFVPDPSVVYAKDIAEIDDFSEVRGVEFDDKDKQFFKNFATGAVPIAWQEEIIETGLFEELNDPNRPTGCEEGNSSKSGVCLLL

Focal adhesion kinase 1 = Focal adhesion kinase 1 (Homo sapiens, UniProt Q05397); assay: Inhibition of recombinant human FAK (411 to 686 residues) using EEEEYEEEEEEYY as substrate incubated for 40 mins in presence of [gamma-33ATP] by scintillation counting based radiometry assay
[6] = molecular target: Tyrosine-protein kinase JAK2 (Homo sapiens, UniProt O60674); assay: Inhibition of recombinant human JAK2 (808 to end residues) using KTFCGTPEYLAPE as substrate incubated for 40 mins in presence of [gamma33P]ATP by radiometric scintillation counting analysis
Chain of Tyrosine-protein kinase JAK2 (O60674 whole entry): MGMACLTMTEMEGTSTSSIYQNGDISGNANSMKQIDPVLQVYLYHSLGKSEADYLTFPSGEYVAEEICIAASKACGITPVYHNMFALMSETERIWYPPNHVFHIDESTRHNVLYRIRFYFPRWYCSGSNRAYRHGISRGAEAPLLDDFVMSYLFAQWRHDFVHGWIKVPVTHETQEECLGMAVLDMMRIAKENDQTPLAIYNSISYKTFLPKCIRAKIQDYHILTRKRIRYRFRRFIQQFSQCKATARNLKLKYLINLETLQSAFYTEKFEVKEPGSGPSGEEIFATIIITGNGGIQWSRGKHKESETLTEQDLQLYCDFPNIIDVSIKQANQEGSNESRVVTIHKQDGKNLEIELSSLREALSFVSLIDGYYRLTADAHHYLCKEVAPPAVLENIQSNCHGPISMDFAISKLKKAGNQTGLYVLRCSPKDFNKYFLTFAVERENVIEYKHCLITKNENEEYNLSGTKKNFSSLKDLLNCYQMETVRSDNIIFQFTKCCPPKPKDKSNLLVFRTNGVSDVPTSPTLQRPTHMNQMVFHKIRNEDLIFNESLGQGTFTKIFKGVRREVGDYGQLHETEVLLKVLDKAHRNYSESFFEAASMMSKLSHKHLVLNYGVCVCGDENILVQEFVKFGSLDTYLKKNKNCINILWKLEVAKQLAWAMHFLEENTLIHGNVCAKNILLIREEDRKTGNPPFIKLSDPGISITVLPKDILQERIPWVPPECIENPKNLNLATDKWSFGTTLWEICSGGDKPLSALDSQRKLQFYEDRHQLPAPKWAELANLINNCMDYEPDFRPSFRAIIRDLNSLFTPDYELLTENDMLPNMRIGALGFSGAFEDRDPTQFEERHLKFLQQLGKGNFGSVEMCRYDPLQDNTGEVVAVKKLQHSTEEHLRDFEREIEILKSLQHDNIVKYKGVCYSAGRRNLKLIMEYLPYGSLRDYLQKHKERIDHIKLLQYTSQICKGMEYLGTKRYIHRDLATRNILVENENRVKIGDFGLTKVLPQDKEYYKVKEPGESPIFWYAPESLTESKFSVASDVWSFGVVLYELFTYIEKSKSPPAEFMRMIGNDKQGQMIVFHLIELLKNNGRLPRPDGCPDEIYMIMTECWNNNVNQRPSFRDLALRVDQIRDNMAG

T2 sequence (P43250 whole entry): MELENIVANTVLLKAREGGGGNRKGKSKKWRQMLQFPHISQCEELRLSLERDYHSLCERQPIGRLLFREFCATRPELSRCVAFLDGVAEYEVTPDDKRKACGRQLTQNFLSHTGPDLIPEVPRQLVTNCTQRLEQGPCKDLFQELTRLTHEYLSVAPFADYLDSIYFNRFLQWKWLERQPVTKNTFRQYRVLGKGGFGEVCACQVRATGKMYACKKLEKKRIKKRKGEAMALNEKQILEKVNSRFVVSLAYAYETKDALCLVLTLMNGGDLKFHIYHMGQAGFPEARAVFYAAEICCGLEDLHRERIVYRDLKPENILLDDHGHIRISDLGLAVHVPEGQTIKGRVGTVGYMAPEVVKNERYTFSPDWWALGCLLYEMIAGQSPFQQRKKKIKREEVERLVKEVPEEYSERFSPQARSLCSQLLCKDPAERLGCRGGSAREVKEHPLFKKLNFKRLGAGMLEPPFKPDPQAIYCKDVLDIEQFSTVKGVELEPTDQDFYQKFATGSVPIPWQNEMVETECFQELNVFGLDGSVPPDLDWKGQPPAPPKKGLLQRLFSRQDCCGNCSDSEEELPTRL
Chain of Serine/threonine-protein kinase Chk2 (O96017 whole entry): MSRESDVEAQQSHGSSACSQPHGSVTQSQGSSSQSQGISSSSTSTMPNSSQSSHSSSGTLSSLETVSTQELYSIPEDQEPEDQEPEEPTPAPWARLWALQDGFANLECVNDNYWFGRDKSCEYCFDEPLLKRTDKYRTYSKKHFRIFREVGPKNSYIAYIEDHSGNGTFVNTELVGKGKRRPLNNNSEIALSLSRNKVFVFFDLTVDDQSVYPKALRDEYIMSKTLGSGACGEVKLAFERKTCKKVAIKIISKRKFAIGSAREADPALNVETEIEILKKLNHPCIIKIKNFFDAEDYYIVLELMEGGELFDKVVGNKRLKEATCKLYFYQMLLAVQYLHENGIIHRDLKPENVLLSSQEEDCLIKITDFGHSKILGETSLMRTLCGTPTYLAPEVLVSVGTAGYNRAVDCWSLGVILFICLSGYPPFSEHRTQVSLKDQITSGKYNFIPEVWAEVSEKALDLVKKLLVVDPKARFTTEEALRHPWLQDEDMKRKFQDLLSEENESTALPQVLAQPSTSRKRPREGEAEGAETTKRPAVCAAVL
Chain of Focal adhesion kinase 1 (Q05397 whole entry, the tested form may be a part): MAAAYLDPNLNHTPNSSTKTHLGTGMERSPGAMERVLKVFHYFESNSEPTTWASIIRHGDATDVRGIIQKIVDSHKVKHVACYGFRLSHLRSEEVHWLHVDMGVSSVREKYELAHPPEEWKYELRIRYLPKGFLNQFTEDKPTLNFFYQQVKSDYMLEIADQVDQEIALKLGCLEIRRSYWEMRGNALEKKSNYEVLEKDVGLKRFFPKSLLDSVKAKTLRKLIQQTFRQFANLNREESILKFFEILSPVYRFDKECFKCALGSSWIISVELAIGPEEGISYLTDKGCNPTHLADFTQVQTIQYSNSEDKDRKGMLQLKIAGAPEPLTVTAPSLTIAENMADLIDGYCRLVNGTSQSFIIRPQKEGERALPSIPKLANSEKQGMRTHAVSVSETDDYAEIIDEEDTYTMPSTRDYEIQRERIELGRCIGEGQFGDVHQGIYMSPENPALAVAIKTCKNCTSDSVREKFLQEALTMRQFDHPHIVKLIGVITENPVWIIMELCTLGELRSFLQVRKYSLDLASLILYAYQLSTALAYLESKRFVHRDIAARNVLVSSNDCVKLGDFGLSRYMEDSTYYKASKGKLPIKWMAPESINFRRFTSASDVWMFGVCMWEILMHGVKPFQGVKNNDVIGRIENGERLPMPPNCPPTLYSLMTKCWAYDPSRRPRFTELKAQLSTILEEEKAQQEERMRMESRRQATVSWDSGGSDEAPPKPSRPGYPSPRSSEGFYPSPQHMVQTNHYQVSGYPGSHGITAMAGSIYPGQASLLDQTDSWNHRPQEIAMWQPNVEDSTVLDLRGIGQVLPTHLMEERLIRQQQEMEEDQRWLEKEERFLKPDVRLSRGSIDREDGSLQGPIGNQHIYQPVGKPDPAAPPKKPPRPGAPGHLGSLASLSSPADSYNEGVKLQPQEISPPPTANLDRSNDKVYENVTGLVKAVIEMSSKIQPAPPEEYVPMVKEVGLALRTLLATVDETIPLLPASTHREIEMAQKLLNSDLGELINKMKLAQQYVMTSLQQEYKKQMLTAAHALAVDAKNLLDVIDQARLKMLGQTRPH
Chain of G protein-coupled receptor kinase 4 (P32298 whole entry): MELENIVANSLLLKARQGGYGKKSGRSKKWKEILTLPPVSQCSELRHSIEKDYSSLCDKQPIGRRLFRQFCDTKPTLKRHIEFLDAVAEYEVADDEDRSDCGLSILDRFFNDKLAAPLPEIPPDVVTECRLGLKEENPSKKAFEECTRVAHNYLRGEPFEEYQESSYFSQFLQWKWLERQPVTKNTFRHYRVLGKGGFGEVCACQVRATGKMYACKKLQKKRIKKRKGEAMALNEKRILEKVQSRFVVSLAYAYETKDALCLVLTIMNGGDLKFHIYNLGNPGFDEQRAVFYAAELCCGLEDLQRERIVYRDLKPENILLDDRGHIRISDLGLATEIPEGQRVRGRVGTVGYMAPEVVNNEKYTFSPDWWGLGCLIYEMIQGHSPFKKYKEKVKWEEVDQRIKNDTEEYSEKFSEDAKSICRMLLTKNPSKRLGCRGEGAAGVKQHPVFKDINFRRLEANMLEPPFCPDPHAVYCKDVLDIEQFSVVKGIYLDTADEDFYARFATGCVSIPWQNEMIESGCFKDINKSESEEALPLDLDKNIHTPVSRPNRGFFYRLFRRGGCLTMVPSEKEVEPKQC

## CCc1cc(Nc2nc(NCc3ccc(Cl)cc3OC)nc3cccc(OC)c23)n[nH]1
[1]
  IC50: > 10000 nM
[2]
  IC50: 30 nM
[3]
  IC50: 22 nM
[4]
  IC50: 3.8 nM
[5]
  IC50: 820 nM
Rhodopsin kinase GRK1
  IC50: 52 nM
Aurora kinase A
  IC50: 8900 nM
Rhodopsin kinase GRK7
  IC50: 6.4 nM
Focal adhesion kinase 1
  IC50: 220 nM
[6]
  IC50: > 10000 nM
